Measurements as given in PubChem BioAssay AID449762 (Southern Research Specialized Biocontainment Screening …, 2010).
Inconclusive results are not listed.

System: M. tuberculosis H37Rv growth inhibition, 7H9 media
Test: M. tuberculosis growth inhibition, HTS (AID 449762);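 also: bacterial growth assessed after seven days of incubation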
Conditions: for IC90: measured here: IC90 growth inhibition

Row | Structure (SMILES) | IC50 | IC90
1 | CC(=O)c1cccc2c(O)c(C3=Nc4ccccc4C3=O)[nH]c12 | 11.7 µM | 13.2 µM
2 | CCN(CC)C(=O)Oc1ccc2c(=O)c(-c3ccc(OC)cc3)coc2c1 | 28.5 µM | > 100 µM
3 | CSc1ccccc1OCc1cc(C(=O)N2CCC(Oc3cccnc3)CC2)no1 | 24 µM | 27.6 µM
4 | CCOc1cc(-c2c(C#N)c(=O)[nH]c3c2c(C)nn3-c2ccc(F)cc2)ccc1O | 1.21 µM | 4.98 µM
5 | C#CCCc1cscc1/C=[N+](\[O-])c1ccc(C(=O)OCC)cc1 | 99.1 µM | > 100 µM
6 | CCc1ccc2nc(N3C(=O)C(O)=C(C(=O)c4ccco4)C3c3cccs3)sc2c1 (stereo not given) | 83.2 µM | 92.3 µM
7 | O=C1C2C(c3ccccc3)(C(=O)N1c1ccc(Cl)cc1)C2(c1ccccc1)c1ccccc1 (stereo not given) | 11.5 µM | 12.4 µM
8 | C=CCN(C(=O)CSc1nc2c(sc3ccccc32)c(=O)n1CCN(CC)CC)c1ccccc1 | 29 µM | 36 µM
9 | COc1ccc(C(C[N+](=O)[O-])c2c(-c3ccccc3)cc3ccccn23)c(OC)c1 (stereo not given) | 14.9 µM | 38.6 µM
10 | Cc1ccc(S(=O)(=O)NNC(=O)c2cc([N+](=O)[O-])c(C)c([N+](=O)[O-])c2)cc1 | 7.57 µM | 12.5 µM
11 | CCSc1ncc(/C=N/Nc2ccccc2)n1C | 89.3 µM | > 100 µM
12 | Nc1c2c(nc3sc4c(c13)CCCCC4)CCCC2 | 4.56 µM | 13.8 µM
13 | C/C(=N\NC(=S)Nc1cccc(C)c1)c1cccc(N)c1 | 25.8 µM | 30.4 µM
14 | CC(C(c1ccc2c(c1)OCO2)c1c(N)n(C)c(=O)n(C)c1=O)[N+](=O)[O-] (stereo not given) | 2.54 µM | 6.08 µM
15 | COc1ccc(C2=Nn3c(nnc3-c3ccccc3F)SC2)cc1OC1CCCC1 | 8.9 µM | 19.6 µM
16 | CCOC(=O)N1CCN(Cc2cc(Cl)c3cccnc3c2O)CC1 | 11 µM | 21 µM
17 | C=CCOc1c(Br)cc(CNc2nccs2)cc1OC | 22.3 µM | 40.9 µM
18 | CCNc1nc(NC(C)(C)C)nc(N2CCCCC2)n1 | 99.6 µM | > 100 µM
19 | CC(C)(C)c1ccc(C(=O)NC(=S)NNC(=O)COc2ccccc2)cc1 | 3.39 µM | 8.56 µM
20 | COc1ccc(C2=CC(c3c(C)nn(-c4ccccc4)c3Cl)n3nnnc3N2)cc1OC (stereo not given) | 40.8 µM | 78.9 µM
21 | CC(=O)C1=C(C)NC(SCC(=O)c2ccc(F)cc2)=C(C#N)C1c1ccco1 (stereo not given) | 46.1 µM | 51 µM
22 | CCCNC1=C(N(C(C)=O)c2cccc(F)c2)C(=O)c2ccccc2C1=O | 11.4 µM | 20.1 µM

Row | Structure (SMILES) | IC50 | IC90
23 | CCOC(=O)c1sc2nc(C)nc(SC(C)C(=O)N(C)c3ccccc3)c2c1C (stereo not given) | 35.1 µM | 46.5 µM
24 | NC(=S)NNc1ccc(Cl)c(Cl)c1 | 5.81 µM | 9.42 µM
25 | O=C(CN1CCC(n2nnc3cc(C(F)(F)F)ccc32)CC1)NCc1cccs1 | 37.5 µM | 47.8 µM
26 | CC(=O)c1sc(NC(=O)c2cc(=O)c3ccccc3o2)nc1C | 14.3 µM | > 100 µM
27 | CCCC(NCC(O)COc1ccc(-c2ccccc2)cc1)c1ccccc1 (stereo not given) | 11.5 µM | 14.9 µM
28 | C[C@@H]1CCCCCCCCC(=O)OCCN[C@H](C)CCCCCCCCC(=O)OCCN[C@H](C)CCCCCCCCC(=O)OCCN1 | 25.2 µM | 29.4 µM
29 | Brc1ccc(N/N=C(/N=Nc2nn[nH]n2)c2ccccc2)cc1 | 14.2 µM | 22.1 µM
30 | O=C1/C(=C/Nc2ccc3c(c2)OCO3)CCc2ccccc21 | 72.8 µM | > 100 µM
31 | CC(C)(C)c1nn(-c2ccccc2)c2[nH]c(=O)c(CNCc3ccc4c(c3)OCO4)cc12 | 20.4 µM | 27.3 µM
32 | Cc1c(Cl)cccc1-c1ccc(CNCc2ccccn2)o1 | 0.7 µM | 4.03 µM
33 | COC(=O)[C@@H](NC(=O)c1cc(COc2cncc(Cl)c2)on1)c1ccccc1 | 1.19 µM | 3.97 µM
34 | CCCCN(CCCC)CCC(O)c1cc2c(Cl)cc(Cl)cc2c2cc(C(F)(F)F)ccc12 (stereo not given) | 16.6 µM | 25.7 µM
35 | CN(C)C(=O)c1ccc(NC(=O)COC(=O)c2cc3c(s2)CCCCC3)cc1 | 45.8 µM | > 100 µM
36 | Cn1ccnc1C(=O)C1CCCN(Cc2cn[nH]c2-c2ccc(-c3ccccc3)cc2)C1 (stereo not given) | 76 µM | 91.7 µM
37 | CCc1ccc(C2=NN(c3ccc(S(N)(=O)=O)cc3)C(c3ccc(F)cc3)C2)cc1 (stereo not given) | 36.2 µM | 48.7 µM
38 | O=C1Nc2ccccc2/C1=N\N=C\C1=C(N2CCOCC2)C(=C\c2ccccc2)/CC1 | 33.4 µM | 59.8 µM
39 | Cc1ccc(C)c(NC(CC(=O)c2ccccc2)C(=O)OCC(=O)c2cccs2)c1 (stereo not given) | 5.16 µM | 7.68 µM
40 | CCOc1cc(/C=N/Nc2nc(Nc3ccccc3)nc(N3CCCCC3)n2)ccc1OCC(=O)O | 7.04 µM | 23.4 µM
41 | COC(=O)C1=C(C)N(Cc2ccccc2)C(=NCc2cccc(Cl)c2)N[C@H]1c1ccccc1 | 16.5 µM | 21 µM
42 | CC(=NCc1ccc2c(c1)OCO2)C1=C(O)c2ccccc2C1=O | 1.09 µM | > 100 µM
43 | N/C(=N\OC(=O)Nc1ccc(Cl)c(Cl)c1)c1ncc(C(F)(F)F)cc1Cl | 41.9 µM | 45.8 µM
44 | COc1cc(CNCCc2ccccc2)cc(Cl)c1OCc1ccccc1 | 22.3 µM | 24.9 µM

Row | Structure (SMILES) | IC50 | IC90
45 | NC(=O)c1cccc(-c2cc(Nc3ccc(OC(F)(F)F)cc3)ncn2)c1 | 8.46 µM | 18.4 µM
46 | Cn1cccc1/C=C1/C(=O)NC(=S)N(Cc2ccc(F)cc2)C1=O | 24.2 µM | > 100 µM
47 | c1ccc(-c2cn3c(n2)CCc2ccc4cccnc4c2-3)cc1 | 8.12 µM | 41.2 µM
48 | Cc1nc(NC(=O)CC(C)C)sc1-c1csc(Nc2ccc(Cl)cc2Cl)n1 | 46.3 µM | 52.5 µM
49 | C1=C(c2c[nH]c3ccccc23)CCNC1 | 32.4 µM | 39.8 µM
50 | Cc1ccc(C(C(=O)NCC2CCCO2)N(Cc2ccccc2)C(=O)c2ccc(-c3ccccc3)[nH]2)o1 (stereo not given) | 23.3 µM | 35.6 µM
51 | CCOC(=O)c1[nH]c(CN2CCN(c3ccc(OC)cc3)CC2)c(C(=O)OCC)c1C | 23 µM | 26 µM
52 | C[C@]12CC[C@@H]3c4ccc(O)cc4CC[C@H]3[C@@H]1CC[C@@H]2OC(=O)CCC1CCCC1 | 6.41 µM | 10.9 µM
53 | O=[N+]([O-])c1cc(-c2ncccn2)c([N+](=O)[O-])s1 | 12.9 µM | 32.5 µM
54 | CC(C)NCC(O)c1ccc(O)c(O)c1 (stereo not given) |  | > 100 µM
55 | O=C(OCc1ccccc1F)c1cnc(Cl)c(Cl)c1 | 13.1 µM | 49.8 µM
56 | O=c1[nH]c(CN2CC=C(c3ccccc3)CC2)nc2cc(C(F)(F)F)ccc12 | 69.4 µM | 86 µM
57 | COc1cc(/C=C2\C(=O)N(c3ccc(S(N)(=O)=O)cc3)N=C2C)ccc1OC(=O)c1ccco1 | 16.2 µM | 22.6 µM
58 | O=C(NCCc1ccccc1)[C@@H]1CC=C[C@@H]2CCN(Cc3ccc(Cl)c(Cl)c3)C(=O)[C@@H]21 | 51.3 µM | 79.1 µM
59 | COC(=O)[C@@H](NC(=O)O[C@@H]1C(=O)c2ccc(OC)cc2O[C@H]1c1cccc(C(F)(F)F)c1)C(C)C | 56.2 µM | > 100 µM
60 | CNC(=S)Nc1ccc(N2CCN(c3ccc(C(F)(F)F)cn3)CC2)nc1 | 9.93 µM | > 100 µM
61 | COc1cccc(COC(=O)c2ccc3c(=O)n4c(nc3c2)CCC4)c1OC | 21.1 µM | 50.6 µM
62 | CC(=O)N1CCN(c2ccc(Oc3ccc([N+](=O)[O-])c(C(F)(F)F)c3)cc2)CC1 | 7.54 µM | 19.3 µM
63 | CC1(C)CN(c2ccccc2)N(C(=O)c2ccc(C#N)cc2)C1=O | 72.4 µM | > 100 µM
64 | Cc1c(OCc2ccccc2)c(=O)ccn1Cc1ccc(Cl)cc1 | 39.4 µM | 60.1 µM
65 | O=C(CSc1nn(-c2ccc(F)cc2)c(=S)s1)NCC1CCCO1 (stereo not given) | 6.13 µM | > 100 µM
66 | Cc1c([N+](=O)[O-])cnc(Sc2ccccc2)c1[N+](=O)[O-] | 2.01 µM | 7.59 µM

Row | Structure (SMILES) | IC50 | IC90
67 | NC(=S)N=Nc1ccc(NN=C(N)N)cc1 | 16.9 µM | 24.7 µM
68 | Cc1ccn2c(NC3CCCCC3)c(-c3cccc(-c4cccc(Cl)c4)c3)nc2c1 | 14.2 µM | 27 µM
69 | CC1CCC/C(=N\NC(=S)Nc2ccccc2)C1 (stereo not given) | 43.2 µM | 67.5 µM
70 | O=C1C(=O)N(c2ccccc2)c2ccccc21 | 8.23 µM | 17.7 µM
71 | C[n+]1c(-c2ccccc2)c2cc(N)ccc2c2ccc(N)cc21 | 7.95 µM | 10.2 µM
72 | COc1ccc(-c2c(C#Cc3ccsc3)c3ccccc3n2C)cc1 | 25.5 µM | 37.8 µM
73 | CCCCOCCCn1c(-c2ccco2)nc2nc3ccccc3nc21 | 94.9 µM | > 100 µM
74 | Cc1nn(-c2ccccc2)c(N)c1N=Nc1ccc(Cl)cc1 | 27.3 µM | 41.5 µM
75 | Cc1cc(C(=O)N[C@H](c2ccccc2)[C@@]2(C)C[C@@H]2[C@@H](C)C(=O)Nc2ccc3ccccc3c2)n(C)n1 | 24.4 µM | 27.6 µM
76 | O=c1c2c(nc3nc(NCc4ccc(Cl)cc4)[nH]n13)CCC2 | 6.28 µM | 7.32 µM
77 | Cc1ccc(C(=O)N/C(=C/c2ccco2)C(=O)OCN2C(=O)c3ccccc3C2=O)cc1 | 6.83 µM | 49.9 µM
78 | Cc1ccn2c(-c3csc(NCc4ccccc4)n3)c(C)nc2c1 | 46.8 µM | 52.8 µM
79 | C=CCn1cccc(/C=C/C(=O)c2ccc(C(C)(C)C)cc2)c1=S | 27.8 µM | 56.5 µM
80 | CCCCN(C)C(=O)Cc1c(OC)ccc2cc(Br)ccc12 | 19.5 µM | 29.2 µM
81 | C=CCN1CC[C@]23c4c5ccc(O)c4O[C@H]2/C(=N/NC(=O)c2ccccc2)CC[C@@]3(O)[C@H]1C5 | 79.5 µM | > 100 µM
82 | Fc1ccc(C[n+]2c(-c3ccccc3)cc(-c3ccccc3)cc2-c2ccccc2)cc1 | 32.3 µM | 44.3 µM
83 | COc1ccccc1N1C(=O)NC(=O)/C(=C/c2ccc([N+](=O)[O-])s2)C1=O |  | > 100 µM
84 | COc1ccc(C(=O)/C=C/c2cc(OC)c(O)c(OC)c2)c(F)c1 | 34.6 µM | 67 µM
85 | Cc1nonc1OCCNCCNc1ccc([N+](=O)[O-])c2cccnc12 | 6.68 µM | 13.9 µM
86 | CN(C(=O)COC(=O)c1ccc([N+](=O)[O-])cc1Cl)C1CCCCC1 | 12.8 µM | 65.6 µM
